The source of these data is patent US10722515B2, “Dual CLK/CDK1 inhibitors for cancer treatment” (SRI INTERNATIONAL, priority 2016, dated 2020).

Test [1] concerns the target T1, CLK1(h) (Homo sapiens, UniProt P49759).
T1 construct: purchased Eurofins, Dundee, Scotland
The experiment in a line: radiometric protein kinase assay, CLK1. Type of test: biochemical. The procedure:
(§1) Enzymatic biochemical activities were evaluated in radiometric protein kinase assays (Eurofins, Dundee, Scotland). Kinases are incubated with buffer, substrate and [γ-^33P]-ATP (specific activity approx. 500 cpm/pmol, concentration as required). The reaction is initiated by the addition of the MgATP mix. After incubation for 40 minutes at room temperature, the reaction is stopped by the addition of 3% phosphoric acid solution. 10 μL of the reaction is then spotted onto a P30 filtermat and washed three times for 5 minutes in 75 mM phosphoric acid and once in methanol prior to drying and scintillation counting.
(§2) All compounds are prepared to 50× final assay concentration in 100% DMSO. Positive control wells contain all components of the reaction with 2% DMSO. Blank wells contain all components of the reaction, with a reference inhibitor replacing the compound of interest. Each kinase is assigned a standard assay concentration of ATP within 20 μM of its apparent KM. Compounds were screened at 1 μM in duplicate or tested at 10 concentrations at half log dilution starting from 10 μM in singlicate. Dose response curves were fitted with four parameter logistic curve to obtain IC50 values. The average coefficient of variation (CV) of the conducted assay is 4.4%.

The target in test [2] is T2, CLK2(h) (Homo sapiens, UniProt P49760).
T2 construct: purchased Eurofins, Dundee, Scotland
As to the kind of experiment: radiometric protein kinase assay, CLK2. Type of test: biochemical. The settings on record: enzyme inhibition, ATP 10 μM. The protocol:
as §1, §2

The target of test [3] is T3, CLK3(h) (Homo sapiens, UniProt P49761).
T3 construct: purchased Eurofins, Dundee, Scotland
The experiment in a line: radiometric protein kinase assay, CLK3. It is filed as biochemical. The protocol: as §1, §2

In test [4] the target is T4, CLK4(h) (Homo sapiens, UniProt Q9HAZ1).
T4 construct: purchased Eurofins, Dundee, Scotland
The experiment in a line: radiometric protein kinase assay, CLK4. The following applies: enzyme inhibition, ATP 10 μM. Type of test: biochemical. The protocol:
as §1, §2

In test [5] the target is T5, CDK1/cyclinB(h) (Homo sapiens, UniProt P06493).
T5 construct: purchased Eurofins, Dundee, Scotland
As to the kind of experiment: radiometric protein kinase assay, CDK1. It is filed as biochemical. The following applies: enzyme inhibition, ATP 45 μM. The protocol:
as §1, §2

Test [6] has as its target T6, CDK4/cyclinD3(h) (Homo sapiens, UniProt P11802).
T6 construct: purchased Eurofins, Dundee, Scotland
The experiment in a line: radiometric protein kinase assay, CDK4. It is filed as biochemical. The settings on record: enzyme inhibition, ATP 20 μM. The procedure:
as §1, §2

Test [7] addresses T7, CDK6/cyclinD3(h) (Homo sapiens, UniProt Q00534).
T7 construct: purchased Eurofins, Dundee, Scotland
The experiment in a line: radiometric protein kinase assay, CDK6. It is filed as biochemical. The following applies: enzyme inhibition, ATP 20 μM. The protocol:
as §1, §2

Test [8] concerns MDM2 alternate splicing in Rh-18 cells. As to the kind of experiment: Rh-18 MDM2 RT-PCR gel-based assay (orthogonal secondary assay). It is filed as cell-based. The settings on record: 10 μM, 8 h. The protocol:
These hits were then subjected to a confirmatory assay in the Rh-18 MDM2 RT-PCR gel-based assay at a concentration of 10 μM.
Referring to FIG. 6, cells were exposed to 0.5% DMSO, 0.2 μM sudemycin D6 or […] CGP-74514A for 8 h. Total RNA was extracted by RNeasy Mini Kit (Qiagen). High capacity RNA-to-cDNA kit (Life technologies) was used to convert the RNA to cDNA.
Referring to FIG. 7, cells were exposed to 0.5% DMSO (lane 1), 1 μM sudemycin D6 (lane 2), 10 μM Compound 14 (lane 3), and 10 μM Compound 15 (lane 4) for 8 h. The total RNA was extracted by RNeasy Mini Kit (Qiagen). High capacity RNA-to-cDNA kit (Life technologies) was used to convert the RNA to cDNA. […] Ubiquitin transcripts (165 bp) in the same cells were used as a control (Fan et al. (2011) ACS Chem. Biol. 6: 582-9).

For test [9], the system named is SK-MEL-2/Luc-MDM2 cells (MDM2-Luc exon-skipping reporter). The experiment in a line: cell-based MDM2-Luc exon-skipping reporter assay. The settings on record: for MDM2/Luc: luciferase activation vs DMSO control, average of three experiments; for luciferase response (Luc fold) in the MDM2-Luc reporter assay: compared with less potent CLK inhibitors of the series. For orientation: Reporter assays use an easily measured gene product as a stand-in for the process of interest.

Setting [10] is: enzyme inhibition, radiometric, ATP 10 μM, read-out: IC50 (nM) CLK1.
Setting [11] is: enzyme inhibition, radiometric, ATP 90 μM, read-out: IC50 (nM) CLK3.

Read-outs that look alike come from different tables or passages of the source.

T6 sequence (P11802 whole entry): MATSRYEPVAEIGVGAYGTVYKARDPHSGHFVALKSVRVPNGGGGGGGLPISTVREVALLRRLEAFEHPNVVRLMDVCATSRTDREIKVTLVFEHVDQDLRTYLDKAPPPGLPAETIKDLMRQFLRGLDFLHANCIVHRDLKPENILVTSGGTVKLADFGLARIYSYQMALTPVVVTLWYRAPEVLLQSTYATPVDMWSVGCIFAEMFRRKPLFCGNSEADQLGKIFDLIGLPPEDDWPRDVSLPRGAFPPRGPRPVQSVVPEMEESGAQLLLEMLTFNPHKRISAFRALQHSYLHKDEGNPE
T6 sequence (P30281 whole entry partner): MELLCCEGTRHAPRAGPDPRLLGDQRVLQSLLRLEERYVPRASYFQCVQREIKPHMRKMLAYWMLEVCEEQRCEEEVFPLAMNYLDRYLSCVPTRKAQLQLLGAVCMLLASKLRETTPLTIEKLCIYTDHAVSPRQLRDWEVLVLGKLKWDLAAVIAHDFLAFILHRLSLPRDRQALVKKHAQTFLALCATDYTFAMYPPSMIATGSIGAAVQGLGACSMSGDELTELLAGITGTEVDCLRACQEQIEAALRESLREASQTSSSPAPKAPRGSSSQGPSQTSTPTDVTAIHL
T4 sequence (Q9HAZ1 whole entry): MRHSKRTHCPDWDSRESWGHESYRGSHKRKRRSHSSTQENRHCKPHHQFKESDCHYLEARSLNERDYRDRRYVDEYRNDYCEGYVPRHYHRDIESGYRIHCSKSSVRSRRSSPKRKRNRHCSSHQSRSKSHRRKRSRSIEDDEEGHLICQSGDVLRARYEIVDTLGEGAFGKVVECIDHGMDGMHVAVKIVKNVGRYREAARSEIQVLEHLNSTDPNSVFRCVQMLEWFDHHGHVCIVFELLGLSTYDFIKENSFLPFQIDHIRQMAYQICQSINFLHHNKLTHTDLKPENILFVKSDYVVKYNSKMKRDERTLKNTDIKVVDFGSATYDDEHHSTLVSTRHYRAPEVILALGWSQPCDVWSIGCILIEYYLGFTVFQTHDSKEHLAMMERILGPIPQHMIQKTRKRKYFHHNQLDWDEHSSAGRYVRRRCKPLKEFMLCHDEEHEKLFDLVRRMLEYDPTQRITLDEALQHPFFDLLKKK
T3 sequence (P49761 whole entry): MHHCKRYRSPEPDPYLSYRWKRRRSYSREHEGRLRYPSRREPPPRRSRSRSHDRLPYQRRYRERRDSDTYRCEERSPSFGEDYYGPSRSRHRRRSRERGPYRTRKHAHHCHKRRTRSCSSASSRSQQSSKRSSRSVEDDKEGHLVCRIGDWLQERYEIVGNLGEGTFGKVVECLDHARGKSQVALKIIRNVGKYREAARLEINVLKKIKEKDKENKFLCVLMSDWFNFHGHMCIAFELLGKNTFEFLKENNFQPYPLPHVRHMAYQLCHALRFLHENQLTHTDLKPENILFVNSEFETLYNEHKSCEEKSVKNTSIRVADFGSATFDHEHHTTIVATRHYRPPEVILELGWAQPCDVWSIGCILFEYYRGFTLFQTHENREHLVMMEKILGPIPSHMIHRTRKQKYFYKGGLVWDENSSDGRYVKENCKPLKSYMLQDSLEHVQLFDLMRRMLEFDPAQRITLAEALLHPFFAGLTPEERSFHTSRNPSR
T1 sequence (P49759 whole entry): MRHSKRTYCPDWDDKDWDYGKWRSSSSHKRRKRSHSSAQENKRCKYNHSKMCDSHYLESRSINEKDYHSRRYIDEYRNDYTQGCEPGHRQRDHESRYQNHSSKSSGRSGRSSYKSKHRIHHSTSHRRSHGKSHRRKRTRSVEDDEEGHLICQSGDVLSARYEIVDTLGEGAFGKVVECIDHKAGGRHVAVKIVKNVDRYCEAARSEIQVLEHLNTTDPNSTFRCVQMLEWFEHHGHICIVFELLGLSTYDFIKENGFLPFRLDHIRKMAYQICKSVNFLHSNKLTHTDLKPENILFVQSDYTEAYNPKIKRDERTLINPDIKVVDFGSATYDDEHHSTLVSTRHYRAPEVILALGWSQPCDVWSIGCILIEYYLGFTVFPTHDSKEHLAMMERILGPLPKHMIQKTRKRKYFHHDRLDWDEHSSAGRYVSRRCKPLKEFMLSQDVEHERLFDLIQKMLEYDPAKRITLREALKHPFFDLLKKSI
T2 sequence (P49760 whole entry): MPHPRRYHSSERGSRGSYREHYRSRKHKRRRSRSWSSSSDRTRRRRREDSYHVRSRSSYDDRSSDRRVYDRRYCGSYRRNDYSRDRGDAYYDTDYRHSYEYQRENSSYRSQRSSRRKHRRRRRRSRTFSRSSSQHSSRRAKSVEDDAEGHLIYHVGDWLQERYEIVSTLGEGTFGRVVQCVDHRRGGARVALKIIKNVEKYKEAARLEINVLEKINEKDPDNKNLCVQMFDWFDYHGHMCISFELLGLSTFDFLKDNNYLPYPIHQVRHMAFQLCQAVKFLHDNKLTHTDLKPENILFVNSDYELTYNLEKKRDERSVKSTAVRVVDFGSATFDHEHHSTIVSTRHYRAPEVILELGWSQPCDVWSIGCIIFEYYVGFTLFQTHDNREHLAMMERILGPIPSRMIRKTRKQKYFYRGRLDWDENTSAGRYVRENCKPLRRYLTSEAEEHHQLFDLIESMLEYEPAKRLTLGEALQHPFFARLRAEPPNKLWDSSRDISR
T5 sequence (P06493 whole entry): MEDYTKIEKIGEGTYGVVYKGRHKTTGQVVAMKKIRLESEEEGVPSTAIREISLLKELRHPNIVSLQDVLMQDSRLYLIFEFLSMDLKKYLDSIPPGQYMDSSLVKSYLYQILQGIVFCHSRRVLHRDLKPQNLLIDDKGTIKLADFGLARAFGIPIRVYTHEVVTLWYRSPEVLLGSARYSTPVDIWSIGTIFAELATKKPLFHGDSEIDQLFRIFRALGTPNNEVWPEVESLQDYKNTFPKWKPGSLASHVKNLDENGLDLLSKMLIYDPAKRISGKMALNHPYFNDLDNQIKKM
T5 sequence (P14635 whole entry partner): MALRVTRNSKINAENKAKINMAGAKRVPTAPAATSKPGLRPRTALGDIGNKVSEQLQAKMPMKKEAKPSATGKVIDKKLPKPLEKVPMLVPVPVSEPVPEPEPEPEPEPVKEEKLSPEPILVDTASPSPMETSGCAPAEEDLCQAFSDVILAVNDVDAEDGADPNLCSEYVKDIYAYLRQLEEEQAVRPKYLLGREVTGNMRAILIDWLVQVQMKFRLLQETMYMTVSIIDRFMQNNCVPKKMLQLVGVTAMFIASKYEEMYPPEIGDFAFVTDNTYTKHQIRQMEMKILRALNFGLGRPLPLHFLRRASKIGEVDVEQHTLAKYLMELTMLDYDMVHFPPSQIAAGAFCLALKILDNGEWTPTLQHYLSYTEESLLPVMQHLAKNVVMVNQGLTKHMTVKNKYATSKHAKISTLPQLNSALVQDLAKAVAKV
T7 sequence (Q00534 whole entry): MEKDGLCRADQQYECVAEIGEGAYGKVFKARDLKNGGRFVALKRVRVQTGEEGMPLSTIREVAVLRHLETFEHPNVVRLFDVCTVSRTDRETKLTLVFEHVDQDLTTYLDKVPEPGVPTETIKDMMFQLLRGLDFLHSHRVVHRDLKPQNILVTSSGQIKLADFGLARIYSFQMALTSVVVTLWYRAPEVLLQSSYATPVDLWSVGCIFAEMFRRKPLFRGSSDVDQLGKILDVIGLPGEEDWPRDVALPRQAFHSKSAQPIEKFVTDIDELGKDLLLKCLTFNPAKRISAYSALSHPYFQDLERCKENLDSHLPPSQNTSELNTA
T7 sequence (P30281 whole entry partner): as the sequence (P30281 whole entry partner) above

Usually IC50 stands for the midpoint of a concentration-inhibition curve. With `CCn1cnc2c(Nc3cccc(Cl)c3)nc(NC3CCCCC3N)nc21` (racemic) [CGP-74514A (1), Racemicm-(Cis-2-Aminocyclohexyl)-N-(3-Chlorophenyl)-9-Ethyl-9H-Purine-2,6-Diamine, reference compound], the IC50 in test [1] was 148 nM; in [2], 111 nM; in test [3], above 1000 nM; in test [4] it was 104 nM; in test [5], 382 nM; in test [6], 573 nM. The molecule also had an IC50 in test [7] above 1000 nM. Moreover, in [8], the “activity in the Rh-18 MDM2 RT-PCR gel-based confirmatory assay” value is reported as “clear activity”. Also, the MDM2/Luc result in test [9] is given as “Active”.
For the molecule `CC(=O)Nc1cc(Cl)cc(Nc2nc(NC3CCCCC3N)nc3c2ncn3C(C)C)c1` (racemic) [Compound 15, Racemic N-Cis(3-((2-((2-Aminocyclohexyl)Amino)-9-Isopropyl-9H-Purin-6-Yl)Amino)-5-Chlorophenyl)Acetamide], the IC50 in test [1] (setting [10]) was 19 nM; in [2], 13 nM; in test [3] (setting [11]), above 1000 nM; in [4] it was 64 nM; in [5], above 1000 nM; in test [6], 930 nM. For the same molecule, the IC50 in test [7] is above 1000 nM. In addition, the “activity in the Rh-18 MDM2 RT-PCR gel-based confirmatory assay” value in test [8] was “confirmation”. Also, in test [9], the “luciferase response (Luc fold) in the MDM2-Luc reporter assay” value is recorded as “stronger luciferase response”. In test [9], the MDM2/Luc result is “Active”. In [9] (result in words, no concentration stated), the MDM2-Luc activity result is “strong MDM2-Luc activity”.
On to `CC(C)[C@H](CO)Nc1nc(Nc2cc(N)cc(Cl)c2)c2ncn(C(C)C)c2n1` [Aminopurvalanol A, reference compound], for which the “activity in the Rh-18 MDM2 RT-PCR gel-based confirmatory assay” value in test [8] is listed as “clear activity”.
Consider `CC(C)n1cnc2c(Nc3cccc(Cl)c3)nc(N[C@H]3CCCC[C@H]3N)nc21` [Compound 10, N^2-((1S,2R)-2-Aminocyclohexyl)-N^6-(3-Chlorophenyl)-9-Isopropyl-9H-Purine-2,6-Diamine], for which the IC50 is 74 nM in test [1] (setting [10]); 26 nM in [2]; above 1000 nM in test [3] (setting [11]); 70 nM in test [4]; above 1000 nM in test [5]; above 1000 nM in [6]. This molecule yielded an IC50 in test [7] above 1000 nM. Moreover, the “luciferase response (Luc fold) in the MDM2-Luc reporter assay” value in test [9] is listed as “stronger luciferase response”. For the same molecule, the MDM2/Luc entry in [9] is “Active”.
